This is an account of results in US20240090503A1, “FUNGICIDAL OXADIAZOLES AND THEIR MIXTURES” (FMC CORPORATION, priority 2020, published 2024).

Where two headings read alike, the source gives them in different places.

Assay type in all cases: in vivo
Assay [1] concerns Zymoseptoria tritici (the causal agent of wheat leaf blotch). The assay can be described thus: Test B: preventive spray on wheat seedlings, wheat leaf blotch, visual disease rating. The following applies: Zymoseptoria tritici, 456 h; test suspension 250 ppm; wheat seedlings. In outline: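 This is a preventive test: spray application preceded Zymoseptoria tritici spore inoculation by one day. Test suspensions were in acetone/water with 250 ppm PEG400 surfactant, at the listed ppm rate. After 48 h saturated humidity at 24° C and 17 days at 20° C, visual ratings scored control from 0 to 100%.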

The test system of assay [2] is Phakopsora pachyrhizi (the causal agent of Asian soybean rust). Description: Test E: compounds alone and mixtures sprayed on soybean seedlings, Asian soybean rust, observed and Colby-expected disease control. The arrangement: key to Test E Obsd: 100 = 100% disease control, 0 = no disease control. The following applies: for pest or weed control at 161.74 ppm: 161.740 ppm. An excerpt:
The general protocol for preparing test compositions for TEST E was as follows: Compound 316, Compound 376, Compound 225, Compound 229, Compound 257, Compound 394, Compound 506, Compound 507, Compound 508, Compound 509, Compound 511, Compound 512, methyl N-[[5-[1-[2,6-difluoro-4-(1-methylethyl)phenyl]-1H-pyrazol-3-yl]-2-methylphenyl]methyl]carbamate (b54.11a), methyl N-[[5-[l-(4-cyclopropyl-2,6-difluorophenyl)-1H-pyrazol-3-yl]-2-methylphenyl]methyl]carbamate (b54.11d), ethyl 1-[[4-[[(1Z)-2-ethoxy-3,3,3-trifluoro-1-propen-1-yl]oxy]phenyl]methyl]-1H-pyrazole-4-carboxylate (b54.12a), ethyl 1-[[4-[[2-(trifluoromethyl)-1,3-dioxolan-2-yl]methoxy]phenyl]methyl]-1H-pyrazole-4-carboxylate (b54.13a), azoxystrobin, benzovindiflupyr, bixafen, chlorothalonil, cyproconazole, epoxiconazole, fenpropidin, fenpropimorph, fluindapyr, flutriafol, fluxapyroxad, inpyrfluxam, metominostrobin, picoxystrobin, prothioconazole, pydiflumetofen, pyraclostrobin, tebuconazole and trifloxystrobin were obtained as unformulated, technical-grade materials. Copper hydroxide and mancozeb was obtained as a formulated product marketed under the trademarks KOCIDE 3000 and MANZATE, respectively. Unformulated materials were first dissolved in acetone and then suspended at the desired concentration (in ppm) in acetone and purified water (50/50 mixture by volume) containing 250 ppm of the surfactant Trem® 014 (polyhydric alcohol esters). Formulated materials were dispersed in sufficient water to give the desired concentration, and neither organic solvent nor surfactant was added to the suspension. The resulting test mixtures were then used in TEST E. The tests were run on four individual plants and the results reported as the mean average of the four plants.
The presence of a synergistic effect between two active ingredients can be established with the aid of the Colby equation (see Colby, S. R. “Calculating Synergistic and Antagonistic Responses of Herbicide Combinations”, Weeds, (1967), 15, 20-22):
Using the method of Colby, the presence of a synergistic interaction between two active ingredients is established by first calculating the predicted activity, p, of the mixture based on activities of the two components applied alone. If p is lower than the experimentally established effect, synergism has occurred. In the equation above, A is the fungicidal activity in percentage control of one component applied alone at rate x. The B term is the fungicidal activity in percentage control of the second component applied at rate y. The equation estimates p, the expected fungicidal activity of the mixture of A at rate x with B at rate y if their effects are strictly additive and no interaction has occurred.
The test mixture was sprayed to the point of run-off on soybean seedlings. The following day the seedlings were inoculated with a spore suspension of Phakopsora pachyrhizi (the causal agent of Asian soybean rust) and incubated in a saturated atmosphere at 22° C. for 24 h and then moved to a growth chamber at 22° C. for 8 days, after which time visual disease ratings were made.
Results for Test E are given below in Tables A-1 through K-2. Each table corresponds to a set of evaluations performed together at the same time. In each table, a rating of 100 indicates 100% disease control and a rating of 0 indicates no disease control (relative to the controls). Columns labeled “Obsd” indicate the average of results observed from test run on four individual plants. Columns labeled “Exp” indicate the expected value for each treatment mixture using the Colby equation, as described above.

Assay [3] deals with Puccinia recondita f. sp. tritici (the causal agent of wheat leaf rust). The assay can be described thus: Test C: preventive spray on wheat seedlings, wheat leaf rust, visual disease rating. Particulars: Puccinia recondita, 168 h, wheat seedlings; for pest or weed control at 10 µg/mL: test suspension 10 ppm, read-out: Test C disease control rating. In outline: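 Wheat seedlings sprayed to run-off with compound in acetone/water (50/50) with 250 ppm PEG400, then inoculated with spores the following day. After 24 h saturated humidity at 20° C. and 6 days in growth chamber at 20° C., disease rated visually as % control relative to untreated controls.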

Assay [4] deals with Phakopsora pachyrhizi (the causal agent of Asian soybean rust). Description: Test A: preventive spray on soybean seedlings, Asian soybean rust, visual disease rating. Particulars: Phakopsora pachyrhizi, 216 h, soybean seedlings, 100 = 100% disease control, 0 = no control; for pest or weed control at 10 µg/mL: test suspension 10 ppm, read-out: Test A disease control rating. In short, it runs like this:
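Compound in acetone/water (50/50) with 250 ppm PEG400 sprayed to run-off on soybean seedlings; inoculated next day with Phakopsora pachyrhizi spores. Held 24 h at 22° C in saturated atmosphere, then 8 days in a 22° C growth chamber before visual rating as % disease control relative to controls.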

[5] abbreviates: Phakopsora pachyrhizi, Compound 508 alone, read-out: Test E Obsd.
[6] abbreviates: Phakopsora pachyrhizi, applied alone, read-out: Test E Obsd.
Where [7] appears, read: Table B-1, component (b) alone: bixafen 11.327, fluxapyroxad 2.757, fluindapyr 8.820 ppm.
The mark [8] stands for this setting: Table B-1, component (b) alone: bixafen 19.525, fluxapyroxad 4.748, fluindapyr 15.230 ppm.
Where [9] appears, read: Table B-2, component (b) alone: bixafen 11.327, fluxapyroxad 2.757, fluindapyr 8.820 ppm.
Where [10] appears, read: Table B-2, component (b) alone: bixafen 19.525, fluxapyroxad 4.748, fluindapyr 15.230 ppm.
Setting [11] is: Phakopsora pachyrhizi, fenpropidin alone, read-out: Test E Obsd.

On to `O=C(NCC(F)F)c1coc(Cc2ccc(-c3noc(C(F)(F)F)n3)cc2)n1` [Compound 225, N-(2,2-difluoroethyl)-2-[[4-[5-(trifluoromethyl)-1,2,4-oxadiazol-3-yl]phenyl]methyl]-4-oxazolecarboxamide], for which, in assay [1], the pest or weed control at 250 µg/mL amounted to 99%. Moreover, the pest or weed control at 0.589 ppm in assay [2] (Phakopsora pachyrhizi, applied alone, 0.589 ppm, read-out: Test E Obsd) stood at 68%. Also, the pest or weed control at 10 µg/mL in assay [3] and in assay [4] was 100% in each case.

`N#CCCNC(=O)c1coc(Cc2ccc(-c3noc(C(F)(F)F)n3)cc2)n1` [Compound 229, N-(2-cyanoethyl)-2-[[4-[5-(trifluoromethyl)-1,2,4-oxadiazol-3-yl]phenyl]methyl]-4-oxazolecarboxamide]: in assay [1], the pest or weed control at 250 µg/mL came to 94%. Moreover, the pest or weed control at 0.964 ppm in assay [2] (Phakopsora pachyrhizi, applied alone, 0.964 ppm, read-out: Test E Obsd) worked out at 59%. The pest or weed control at 1.915 ppm in assay [2] (Phakopsora pachyrhizi, applied alone, 1.915 ppm, read-out: Test E Obsd) turned out to be 77%. Besides, the pest or weed control at 10 µg/mL in assay [3] and in assay [4] was 100% throughout.

For `CCNC(=O)c1cnn(COCc2ccc(-c3noc(C(F)(F)F)n3)cc2)c1` [Compound 508, N-ethyl-1-[[[4-[5-(trifluoromethyl)-1,2,4-oxadiazol-3-yl]phenyl]methoxy]methyl]-1H-pyrazole-4-carboxamide], the pest or weed control at 0.855 ppm came out at 0% in assay [2] (setting [5]) and 23% in assay [2] (setting [6]). For the same molecule, the pest or weed control at 1.716 ppm amounted to 52% in assay [2] (setting [5]) and 60% in assay [2] (setting [6]). Further, the pest or weed control at 10 ppm stood at 100% in assay [3] (10 ppm test suspension, 100 = 100% disease control, 0 = no control) and 100% in assay [4] (10 ppm test suspension).

With `Cn1cc(C(=O)Nc2ccc(F)cc2-c2ccc(Cl)c(Cl)c2)c(C(F)F)n1` [bixafen, reference compound], the “Test E Obsd (disease control rating)” value was found to be 54% in assay [2] (setting [7]), 55% in assay [2] (setting [8]), 54% in assay [2] (setting [9]) and 55% in assay [2] (setting [10]).

For `N#Cc1c(Cl)c(Cl)c(Cl)c(C#N)c1Cl` [chlorothalonil, reference compound], in assay [2] (Phakopsora pachyrhizi, applied alone, 138.129 ppm, read-out: Test E Obsd), the pest or weed control at 138.129 ppm was determined as 76%. For the same molecule, in assay [2] (Phakopsora pachyrhizi, applied alone, 222.081 ppm, read-out: Test E Obsd), the pest or weed control at 222.081 ppm is 88%.

As for `CC(Cc1ccc(C(C)(C)C)cc1)CN1CCCCC1` (stereo not drawn) [fenpropidin, reference compound], in assay [2] (setting [6]), the pest or weed control at 78.393 ppm was 0% and the pest or weed control at 161.74 ppm worked out at 52%. Further, in assay [2] (setting [11]), the pest or weed control at 78.393 ppm came to 0% and the pest or weed control at 161.74 ppm came to 52%.

On to `CC1CC(C)(C)c2c(F)ccc(NC(=O)c3cn(C)nc3C(F)F)c21` (stereo not drawn) [fluindapyr, reference compound], for which the “Test E Obsd (disease control rating)” value in assay [2] (setting [7]) came to 61%; in assay [2] (setting [8]), 79%; in assay [2] (setting [9]), 61%; in assay [2] (setting [10]), 79%.

`Cn1cc(C(=O)Nc2ccccc2-c2cc(F)c(F)c(F)c2)c(C(F)F)n1` [fluxapyroxad, reference compound]: the “Test E Obsd (disease control rating)” value in assay [2] (setting [7]) was 19%; in assay [2] (setting [8]) it was 52%; in assay [2] (setting [9]) it was 19%; in assay [2] (setting [10]), 52%.

`CO/C=C(/C(=O)OC)c1ccccc1COc1cccc(C(F)(F)F)n1` [picoxystrobin, reference compound]: the “Test E Obsd (disease control rating)” value in assay [2] (Table A-1, component (b) alone: b54.13a 1.422, b54.12a 0.303, b54.11a 0.403, picoxystrobin 20.596 ppm) turned out to be 73%; in assay [2] (Table A-1, component (b) alone: b54.13a 2.276, b54.12a 0.489, b54.11a 0.652, picoxystrobin 38.865 ppm), 75%; in assay [2] (Table A-2, component (b) alone: b54.13a 1.422, b54.12a 0.303, b54.11a 0.403, b54.11d 0.346, picoxystrobin 20.596 ppm) it was 73%; in assay [2] (Table A-2, component (b) alone: b54.13a 2.276, b54.12a 0.489, b54.11a 0.652, b54.11d 0.764, picoxystrobin 33.865 ppm), 75%. Also, the “Test E Obsd” value in assay [2] (applied alone, 20.596 ppm) is given as 28; in assay [2] (applied alone, 33.865 ppm), 43; in assay [2] (applied alone, 33.875 ppm) it was 43; in assay [2] (picoxystrobin alone, 20.596 ppm) it was 28; in assay [2] (picoxystrobin alone, 33.865 ppm) it was 43.

Consider `OC(Cc1ccccc1Cl)(Cn1nc[nH]c1=S)C1(Cl)CC1` (stereo not drawn) [prothioconazole, reference compound], for which, in assay [2] (Phakopsora pachyrhizi, applied alone, 10.165 ppm, read-out: Test E Obsd), the pest or weed control at 10.165 ppm is 34%. Also, the pest or weed control at 16.339 ppm in assay [2] (Phakopsora pachyrhizi, applied alone, 16.339 ppm, read-out: Test E Obsd) is 56%.

As to `CON(C(=O)c1cn(C)nc1C(F)F)C(C)Cc1c(Cl)cc(Cl)cc1Cl` (stereo not drawn) [pydiflumetofen, reference compound], the “Test E Obsd (disease control rating)” value is 0% in assay [2] (Table E-1, component (b) alone: epoxiconazole 46.795, pydiflumetofen 70.950 ppm); 73% in assay [2] (Table E-1, component (b) alone: epoxiconazole 89.631, pydiflumetofen 135.850 ppm); 0% in assay [2] (Table E-2, component (b) alone: epoxiconazole 46.795, pydiflumetofen 70.950 ppm); 73% in assay [2] (Table E-2, component (b) alone: epoxiconazole 89.631, pydiflumetofen 135.850 ppm); 49% in assay [2] (Table G-1, component (b) alone: pydiflumetofen 41.364, pyraclostrobin 45.860, metominostrobin 29.673 ppm); 36% in assay [2] (Table G-1, component (b) alone: pydiflumetofen 128.793, pyraclostrobin 137.503, metominostrobin 86.003 ppm). The “Test E Obsd (disease control rating)” value was 49% in assay [2] (Table G-2, component (b) alone: pydiflumetofen 41.364, pyraclostrobin 45.860, metominostrobin 29.673 ppm) and 36% in assay [2] (Table G-2, component (b) alone: pydiflumetofen 128.793, pyraclostrobin 137.503, metominostrobin 86.003 ppm).

As for inpyrfluxam [reference compound], the “Test E Obsd” value stood at 56 in assay [2] (inpyrfluxam alone, 0.448 ppm) and 79 in assay [2] (inpyrfluxam alone, 1.059 ppm).
